“Also recorded” adds a separate entry of the source. Read-outs that look alike come from different tables or passages of the source.
Legend:
[1] = Rat plasma pharmacokinetics after cumulative (QID) SC injections; details: for Cmax: parent analyte (total MDMA after Rac-MDMA)
CD (Sprague Dawley) rats = assay: Rat functional observation battery (FOB) neurobehavioral evaluation after cumulative SC dosing; assay type: in vivo
Experimental: The observations were assessed through a rat functional observation battery (FOB) and continuous physiological measurements on the day of cumulative dosing, which are provided in further detail below.
Methods. A total of 42 adult male CD® (Sprague Dawley) rats (Charles River Laboratories) were surgically implanted with DSI radiotelemetry devices by personnel at Charles River Laboratories Raleigh, NC, per their test site SOPs. Telemetry devices supported continuous recording of temperature, activity, blood pressure and heart rate. Telemeterized rats were shipped to the Charles River Laboratories testing facility (Mattawan, MI) and acclimated to the environment for at least 1 week prior to experimentation. Animals were pair-housed in solid bottom cages with nonaromatic bedding. On the dosing day, animals were singly housed and then returned to the paired cohort following the dosing/telemetry recording phase. Diet (Lab Diet® Certified Rodent Diet #5CR4) and tap water via an automatic water system were available ad libitum, except during designated procedures. Temperature and humidity were maintained according to the Testing Facility SOP. Animals were randomized into treatment groups using a standard, by weight, measured value randomization procedure. Body weight was determined for each rat prior to dosing.
As illustrated in the Table, a total of 36 rats were included in the study. The vehicle and 2 test article doses were administered in a volume of 1 mL/kg to each of 3 groups of n=12 telemeterized rats via subcutaneous injection four times on a given day, followed by neurobehavioral evaluations. This series was repeated 3 times on study. Each group received all 3 dose levels of the applicable test or control article in ascending order with a 1-week washout between dose levels.
Mortality/cage side clinical observations were conducted for all study animals at least twice daily beginning upon receipt through termination, except on days of receipt and termination where frequency was at least once daily. Detailed clinical observations were conducted for all study animals prior to each of the four cumulative doses in a series. Individual body weights were conducted for all study animals at transfer, prior to randomization, on the day of dosing on each of the 3 cycles of dosing. The body weights recorded at transfer and prior to randomization are not reported but are maintained in the study file. Veterinary care was available throughout the course of the study, and animals were examined by the veterinary staff as needed based on clinical signs or other changes. All animals were provided with HydroGel the night prior to their respective dosing days to potentially mitigate any animal welfare issues related to fluid loss/dehydration.
Neurobehavioral evaluations (blinded) were conducted for all study animals 1 hour following the last (4th) cumulative dose of the series. The neurobehavioral parameters evaluated included: activity measurements (arousal/alertness, posture/body carriage, stereotypy, rearing, and appearance), autonomic measurements (exophthalmus, lacrimation, erected fur, pupil response, salivation, defecation, and palpebral closure/ptosis), excitability measurements (vocalizations, startle response, ease of removal, handling reactivity, and convulsions), neuromuscular measurements (gait/mobility, grip strength/response, air righting reflex, tremor, and body tone), physiological measurements (respiration and body temperature), and sensorimotor measurements (touch response/tactile reflex and thermal response).

C57BL/6J mice = assay: Head twitch response (HTR); assay type: in vivo, mouse; details: 3 mg/kg IP, 30 minutes after injection
Experimental: Male C57BL/6J mice at 6-8 weeks of age were purchased from Jackson Laboratories and housed four per cage in a climate and humidity-controlled room in a vivarium at the University of California, San Diego. The room operated on a reverse light cycle (lights on at 1900 h, off at 0700 h) with food and water available ad libitum, except during testing. All testing was performed during 1000 h and 1800 h. After a minimum of 1 week acclimation to the housing facility, mice were anesthetized using a mixture of ketamine (100 mg/kg IP) and xylazine (10 mg/kg IP). Under deep anesthesia, an incision was made in the scalp and a small neodymium magnet (4.57 mm×4.57 mm×2.03 mm) was attached to the cranium using cyanoacrylate and dental cement. After at least a 2-week recovery period, the mouse was removed from the home cage and injected intraperitoneally with the test article or vehicle (0.9% sterile saline). Immediately, the mouse was placed in a glass cylinder surrounded by a magnetometer coil and the head twitch response (HTR) was assessed for 30 minutes (Halberstadt and Geyer, 2013). The output of the coil was recorded using a Powerlab/8SP with LabChart v.7.3.2 (ADInstruments). Coil voltage was amplified, low-pass filtered (2-10 kHz cut-off frequency) to remove interference, digitized and sampled at 20 kHz. Head twitches were identified using a validated technique based on artificial intelligence (Halberstadt, 2020). Events in the recordings were transformed into a visual representation in the time-frequency domain and deep features were extracted using the pretrained convolutional neural network ResNet-50, and the images were subsequently classified using a Support Vector Machine algorithm.
Test articles (R,S-MDA, R(−)-MDA, S-(+)MDA), R,S-MDMA, R(−)-MDMA and S(+)-MDMA) were supplied by the NIDA Drug Supply Program as neat powders. Racemic MDA and MDMA and their enantiomers were dissolved in saline and injected IP at a volume of 5 mL/kg. Each dose was calculated based on the salt form of the compounds. For each treatment condition, six groups of mice (n=5-6/group) were treated with vehicle or the test drug (0.1, 0.3, 1, 3, or 10 mg/kg) and HTR assessed for 30 minutes immediately following injections. To avoid carryover effects, each treatment condition was performed at least seven days apart. Total number of mice used for the experiment was 63.

Serotonin 5-HT2B = Serotonin 5-HT2B (Homo sapiens, UniProt P41595); assay: Eurofins Panlabs radioligand binding panel, serotonin 5-HT2B
[2] = male rat plasma, parent analyte, QID SC, total 10 mg/kg/day
[3] = male rat plasma, parent analyte, QID SC, total 20 mg/kg/day
[4] = 1 h after last of 4 hourly SC injections, R-MDMA and racemic MDMA 10, 20 mg/kg/day, S-MDMA 5, 10 mg/kg/day
[5] = FOB, cumulative SC dosing, dose groups stated in the value

Sequence of Serotonin 5-HT2B (P41595 whole entry): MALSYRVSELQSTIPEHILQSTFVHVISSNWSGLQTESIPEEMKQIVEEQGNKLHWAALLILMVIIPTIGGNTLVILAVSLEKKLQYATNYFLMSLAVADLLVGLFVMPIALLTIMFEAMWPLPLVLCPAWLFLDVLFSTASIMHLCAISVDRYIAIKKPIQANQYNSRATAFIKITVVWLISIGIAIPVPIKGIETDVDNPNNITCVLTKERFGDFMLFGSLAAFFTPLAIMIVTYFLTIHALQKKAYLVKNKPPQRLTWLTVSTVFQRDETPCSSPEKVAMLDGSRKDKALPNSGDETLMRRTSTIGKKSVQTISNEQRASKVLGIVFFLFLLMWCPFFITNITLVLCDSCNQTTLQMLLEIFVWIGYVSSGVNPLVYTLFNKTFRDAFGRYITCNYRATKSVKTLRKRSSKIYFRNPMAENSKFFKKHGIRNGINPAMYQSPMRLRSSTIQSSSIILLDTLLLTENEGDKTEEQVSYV

CNC(C)Cc1ccc2c(c1)OCO2 (single isomer, unassigned) [R-MDMA, R(−)-3,4-methylenedioxymethamphetamine]
AUC(0-t) [1]: 11800 ng·h/mL
dose dependence of Cmax and AUC0-27 hr ([1]; dose increase from 10 to 20 mg/kg/day of the dosed test article, QID SC): approximately dose proportional manner
AUC0-27 hr/Dose [1, 2]: 420 *kg*ng/mL/mg
Cmax/Dose [1, 2]: 114 kg·ng/mL/mg
Tlast [1, 2]: 11 h
AUC0-27 hr/Dose [1, 3]: 590 *kg*ng/mL/mg
Cmax/Dose [1, 3]: 127 kg·ng/mL/mg
Tlast [1, 3]: 11 h
AUC(0-t) ([1]; male, Sprague-Dawley (CD), rat, plasma, sc, 10 mg/kg/day, AUC0-27 hr, male rat plasma, parent analyte, QID SC, total 10 mg/kg/day): 4200 ng·h/mL
AUC(0-t) ([1]; male, Sprague-Dawley (CD), rat, plasma, sc, 10 mg/kg/day, AUCTlast, male rat plasma, parent analyte, QID SC, total 10 mg/kg/day): 4160 ng·h/mL
Cmax ([1]; male, Sprague-Dawley (CD), rat, plasma, sc, 10 mg/kg/day, male rat plasma, QID SC, total 10 mg/kg/day of the test article): 1140 ng/mL
half-life ([1]; male, Sprague-Dawley (CD), rat, plasma, sc, 10 mg/kg/day, T1/2, male rat plasma, parent analyte, QID SC, total 10 mg/kg/day): 1.01 h
AUC(0-t) ([1]; male, Sprague-Dawley (CD), rat, plasma, sc, 20 mg/kg/day, AUCTlast, male rat plasma, parent analyte, QID SC, total 20 mg/kg/day): 11300 ng·h/mL
Cmax ([1]; male, Sprague-Dawley (CD), rat, plasma, sc, 20 mg/kg/day, male rat plasma, QID SC, total 20 mg/kg/day of the test article): 2550 ng/mL
arousal/alertness and rearing (CD (Sprague Dawley) rats; [4]): dose-dependent decreases in arousal/alertness and rearing
ease of removal from the home cage and handling reactivity (excitability) (CD (Sprague Dawley) rats; [4]): Dose-dependent increased difficulty in removal from the home cage and increased handling reactivity
forelimb grip strength (CD (Sprague Dawley) rats; [4]): dose-dependent statistically significant decreases in forelimb grip strength
salivation and erected fur (autonomic) (CD (Sprague Dawley) rats; [4]): Dose-dependent increased salivation and erected fur
unkempt appearance (CD (Sprague Dawley) rats; [4]): increased incidence of unkempt appearance in a dose-dependent manner
stereotypies (mouth movements/weaving, circling/retropulsion, sniffing) (CD (Sprague Dawley) rats; 1 h after last of 4 hourly SC injections, highest doses: S-MDMA 10, racemic-MDMA 20 mg/kg/day, R-MDMA 10, 20 mg/kg/day): No stereotypical behaviors were reported
Rank Order Activity Measurement Effects (CD (Sprague Dawley) rats; [5]): S-MDMA (5 mg/kg/day) < R-MDMA (10 mg/kg/day) < Rac.-MDMA (10 mg/kg/day); also recorded: Rac.-MDMA (20 mg/kg/day) < S-MDMA (10 mg/kg/day) < R-MDMA (20 mg/kg/day); also recorded: R-MDMA (0 mg/kg/day) < R-MDMA (10 mg/kg/day) < R-MDMA (20 mg/kg/day); also recorded: Rac.-MDMA (20 mg/kg/day) < S-MDMA (10 mg/kg/day) < R-MDMA (10 mg/kg/day)
Rank Order Autonomic Measurement Effects (CD (Sprague Dawley) rats; [5]): R-MDMA (10 mg/kg/day) < S-MDMA (5 mg/kg/day) < Rac.-MDMA (10 mg/kg/day); also recorded: R-MDMA (20 mg/kg/day) < S-MDMA (10 mg/kg/day) < Rac-MDMA (20 mg/kg/day); also recorded: R-MDMA (0 mg/kg/day) < R-MDMA (10 mg/kg/day) < R-MDMA (20 mg/kg/day); also recorded: R-MDMA (10 mg/kg/day) < S-MDMA (10 mg/kg/day) = Rac-MDMA (20 mg/kg/day)
Rank Order Excitability Measurement Effects (CD (Sprague Dawley) rats; [5]): R-MDMA (10 mg/kg/day) < S-MDMA (5 mg/kg/day) < Rac.-MDMA (10 mg/kg/day); also recorded: R-MDMA (20 mg/kg/day) = S-MDMA (10 mg/kg/day) < Rac-MDMA (20 mg/kg/day); also recorded: R-MDMA (0 mg/kg/day) < R-MDMA (10 mg/kg/day) < R-MDMA (20 mg/kg/day); also recorded: R-MDMA (10 mg/kg/day) < S-MDMA (10 mg/kg/day) < Rac-MDMA (20 mg/kg/day)
Rank Order Neuromuscular Measurement Effects (CD (Sprague Dawley) rats; [5]): R-MDMA (10 mg/kg/day) < S-MDMA (5 mg/kg/day) < Rac.-MDMA (10 mg/kg/day); also recorded: R-MDMA (20 mg/kg/day) = S-MDMA (10 mg/kg/day) < Rac-MDMA (20 mg/kg/day); also recorded: R-MDMA (0 mg/kg/day) < R-MDMA (10 mg/kg/day) < R-MDMA (20 mg/kg/day); also recorded: R-MDMA (10 mg/kg/day) < S-MDMA (10 mg/kg/day) < Rac-MDMA (20 mg/kg/day)
Rank Order Physiological Measurement Effects (CD (Sprague Dawley) rats; [5]): R-MDMA (10 mg/kg/day) < S-MDMA (5 mg/kg/day) < Rac.-MDMA (10 mg/kg/day); also recorded: R-MDMA (20 mg/kg/day) < S-MDMA (10 mg/kg/day) = Rac-MDMA (20 mg/kg/day); also recorded: R-MDMA (0 mg/kg/day) = R-MDMA (10 mg/kg/day) = R-MDMA (20 mg/kg/day); also recorded: R-MDMA (10 mg/kg/day) < S-MDMA (10 mg/kg/day) = Rac-MDMA (20 mg/kg/day)
Rank Order Sensorimotor Measurement Effects (CD (Sprague Dawley) rats; [5]): S-MDMA (5 mg/kg/day) < Rac-MDMA (10 mg/kg/day) < R-MDMA (10 mg/kg/day); also recorded: S-MDMA (10 mg/kg/day) < Rac-MDMA (20 mg/kg/day) < R-MDMA (20 mg/kg/day); also recorded: R-MDMA (0 mg/kg/day) < R-MDMA (10 mg/kg/day) < R-MDMA (20 mg/kg/day)
thermal response times (CD (Sprague Dawley) rats; at levels at least two-fold that of vehicle-treated groups, 1 h after last of 4 hourly SC injections): Statistically significant increases in thermal response times
head twitch response (HTR) compared to control (vehicle) (C57BL/6J mice): increase in HTR
inhibition at 10 µM (Serotonin 5-HT2B; 10 uM, read-out: % inhibition of binding or activity): 79%
IC50 (Serotonin 5-HT2B; IC50, 10 half-log concentrations, 0.3 nM to 10 μM, duplicate): 1.4 µM
Ki (Serotonin 5-HT2B; Ki, 10 half-log concentrations, 0.3 nM to 10 μM, duplicate): 0.89 µM
